Experiment: Solubility/stability of CTA-acid salts in water
Format: physicochemical
Details: CTA-acid dispersed in water at 1 wt. %, dissolved by adding the base/amine; solubility checked again after 48 hrs. at room temperature
Experimental: These new CTA-“bases” were made using the same procedure shown above (“Formation of CTA-Acid Salt(s)”) starting with CTA-acid. The stability of several amines was tested by dispersing CTA-acid in water at 1 wt. % CTA-acid, and then dissolution by adding the amine.

| SMILES | Soluble |
| --- | --- |
| CC(C)CCCCCCCCCOCCCN | no |
| O=C1CCCN1CCO | no |

Next, values leading:

| Soluble | SMILES |
| --- | --- |
| no | NCCOCCOCCN |
| yes | NCCOCCO |
| yes | NCCNCCO |

From patent US10280101B2, “Water soluble chain transfer agents” (The Lubrizol Corporation, priority 2015, dated 2019)
